Assay results as given in ChEMBL document CHEMBL3885861, “Open TG-GATES”.

Organism: Rattus norvegicus
Assay: Open TG-GATES - Regimen: Daily Repeat
Format: toxicity, organism-based, Sprague-Dawley
Parameters: regimen Daily Repeat, gender Male, age 6 weeks
Settings: in vivo, po, 25 mg/kg, route gavage, dose level Low; for APTT / Bas / Eos / Fbg / Hb / Ht / Lym / MCH / MCHC / MCV / Mono / Neu / PT / Plat / RBC / Ret / WBC: tissue Blood; for KIDNEY_L / KIDNEY_R / KIDNEY_TOTAL: tissue Kidney; for LIVER: tissue Liver; for A/G / ALP / ALT / AST / BUN / CRE / Ca / Cl / DBIL / GLC / IP / K / LDH / Na / PL / RALB / TBIL / TC / TG / TP / gamma-GTP: tissue Plasma

Structure (SMILES): CCSCC[C@H](N)C(=O)O [ETHIONINE]
- TERMINAL_BW (72 h, time 3 day): 235.6 g
- APTT (72 h, time 3 day): 22.5 s
- Bas (72 h, time 3 day): 0%
- Eos (72 h, time 3 day): 1%
- Fbg (72 h, time 3 day): 213.8 mg/dL
- Hb (72 h, time 3 day): 13.1 g/dL
- Ht (72 h, time 3 day): 39.1%
- Lym (72 h, time 3 day): 76.6%
- MCH (72 h, time 3 day): 20.8 pg
- MCHC (72 h, time 3 day): 33.6%
- MCV (72 h, time 3 day): 61.9 fL
- Mono (72 h, time 3 day): 2.8%
- Neu (72 h, time 3 day): 18.8%
- PT (72 h, time 3 day): 13.5 s
- Plat (72 h, time 3 day): 126.1 x10_4/uL
- RBC (72 h, time 3 day): 631.2 x10_4/ul
- Ret (72 h, time 3 day): 6.4%
- WBC (72 h, time 3 day): 124.8 x10_2/uL
- KIDNEY_L (72 h, time 3 day): 1 g
- KIDNEY_R (72 h, time 3 day): 1 g
- KIDNEY_TOTAL (72 h, time 3 day): 2.1 g
- LIVER (72 h, time 3 day): 11 g
- A/G (72 h, time 3 day): 1.6
- ALP (72 h, time 3 day): 1017.8 IU/L
- ALT (72 h, time 3 day): 39.2 IU/L
- AST (72 h, time 3 day): 68.2 IU/L
- BUN (72 h, time 3 day): 14.4 mg/dL
- CRE (72 h, time 3 day): 0.4 mg/dL
- Ca (72 h, time 3 day): 10.6 mg/dL
- Cl (72 h, time 3 day): 100.2 meq/L
- DBIL (72 h, time 3 day): 0.08 mg/dL
- GLC (72 h, time 3 day): 203.4 mg/dL
- IP (72 h, time 3 day): 8.7 mg/dL
- K (72 h, time 3 day): 4 meq/L
- LDH (72 h, time 3 day): 174.4 IU/L
- Na (72 h, time 3 day): 139.6 meq/L
- PL (72 h, time 3 day): 129.6 mg/dL
- RALB (72 h, time 3 day): 3.5 g/dL
- TBIL (72 h, time 3 day): 0.1 mg/dL
- TC (72 h, time 3 day): 56.6 mg/dL
- TG (72 h, time 3 day): 97 mg/dL
- TP (72 h, time 3 day): 5.7 g/dL
- gamma-GTP (72 h, time 3 day): 1.2 IU/L
- TERMINAL_BW ([…], time 7 day): 268.3 g
- TERMINAL_BW ([…], time 14 day): 312.6 g
- TERMINAL_BW ([…], time 28 day): 389.5 g
- APTT ([…], time 7 day): 22.7 s
- Bas ([…], time 7 day): 0%
- Eos ([…], time 7 day): 1%
- Fbg ([…], time 7 day): 206.4 mg/dL
- Hb ([…], time 7 day): 13.7 g/dL
- Ht ([…], time 7 day): 40.1%
- Lym ([…], time 7 day): 81.8%
- MCH ([…], time 7 day): 20.8 pg
- MCHC ([…], time 7 day): 34.2%
- MCV ([…], time 7 day): 60.8 fL
- Mono ([…], time 7 day): 2.2%
- Neu ([…], time 7 day): 14.8%
- PT ([…], time 7 day): 13.3 s
- Plat ([…], time 7 day): 121.3 x10_4/uL
- RBC ([…], time 7 day): 660 x10_4/ul
- Ret ([…], time 7 day): 5.6%
- WBC ([…], time 7 day): 94 x10_2/uL
- APTT ([…], time 14 day): 22.1 s
- Bas ([…], time 14 day): 0%
- Eos ([…], time 14 day): 0.8%
- Fbg ([…], time 14 day): 192.2 mg/dL
- Hb ([…], time 14 day): 14.3 g/dL
- Ht ([…], time 14 day): 41.5%
- Lym ([…], time 14 day): 79.6%
- MCH ([…], time 14 day): 20.8 pg
- MCHC ([…], time 14 day): 34.6%
- MCV ([…], time 14 day): 60.2 fL
- Mono ([…], time 14 day): 2.2%
- Neu ([…], time 14 day): 16.4%
- PT ([…], time 14 day): 13.8 s
- Plat ([…], time 14 day): 125.2 x10_4/uL
- RBC ([…], time 14 day): 689 x10_4/ul
- Ret ([…], time 14 day): 3.8%
- WBC ([…], time 14 day): 109.7 x10_2/uL
- APTT ([…], time 28 day): 24.9 s
- Bas ([…], time 28 day): 0%
- Eos ([…], time 28 day): 1.2%
- Fbg ([…], time 28 day): 184.4 mg/dL
- Hb ([…], time 28 day): 15.3 g/dL
- Ht ([…], time 28 day): 44%
- Lym ([…], time 28 day): 80%
- MCH ([…], time 28 day): 19.7 pg
- MCHC ([…], time 28 day): 34.7%
- MCV ([…], time 28 day): 56.6 fL
- Mono ([…], time 28 day): 2%
- Neu ([…], time 28 day): 15.8%
- PT ([…], time 28 day): 14 s
- Plat ([…], time 28 day): 114 x10_4/uL
- RBC ([…], time 28 day): 779.4 x10_4/ul
- Ret ([…], time 28 day): 1.9%
- WBC ([…], time 28 day): 137.8 x10_2/uL
- KIDNEY_L ([…], time 7 day): 1.1 g
- KIDNEY_R ([…], time 7 day): 1.1 g
- KIDNEY_TOTAL ([…], time 7 day): 2.2 g
- KIDNEY_L ([…], time 14 day): 1.3 g
- KIDNEY_R ([…], time 14 day): 1.2 g
- KIDNEY_TOTAL ([…], time 14 day): 2.5 g
- KIDNEY_L ([…], time 28 day): 1.4 g
- KIDNEY_R ([…], time 28 day): 1.4 g
- KIDNEY_TOTAL ([…], time 28 day): 2.8 g
- LIVER ([…], time 7 day): 12.3 g
- LIVER ([…], time 14 day): 13.8 g
- LIVER ([…], time 28 day): 17.2 g
- A/G ([…], time 7 day): 1.7
- ALP ([…], time 7 day): 1036.6 IU/L
- ALT ([…], time 7 day): 32.8 IU/L
- AST ([…], time 7 day): 61.2 IU/L
- BUN ([…], time 7 day): 15.2 mg/dL
- CRE ([…], time 7 day): 0.4 mg/dL
- Ca ([…], time 7 day): 10.5 mg/dL
- Cl ([…], time 7 day): 103.2 meq/L
- DBIL ([…], time 7 day): 0.086 mg/dL
- GLC ([…], time 7 day): 195.8 mg/dL
- IP ([…], time 7 day): 7.9 mg/dL
- K ([…], time 7 day): 3.8 meq/L
- LDH ([…], time 7 day): 205.8 IU/L
- Na ([…], time 7 day): 141.6 meq/L
- PL ([…], time 7 day): 143 mg/dL
- RALB ([…], time 7 day): 3.7 g/dL
- TBIL ([…], time 7 day): 0.1 mg/dL
- TC ([…], time 7 day): 61 mg/dL
- TG ([…], time 7 day): 141.4 mg/dL
- TP ([…], time 7 day): 5.9 g/dL
- gamma-GTP ([…], time 7 day): 1 IU/L
- A/G ([…], time 14 day): 1.7
- ALP ([…], time 14 day): 768.4 IU/L
- ALT ([…], time 14 day): 28.6 IU/L
- AST ([…], time 14 day): 56.2 IU/L
- BUN ([…], time 14 day): 16.8 mg/dL
- CRE ([…], time 14 day): 0.5 mg/dL
- Ca ([…], time 14 day): 10.3 mg/dL
- Cl ([…], time 14 day): 101.8 meq/L
- DBIL ([…], time 14 day): 0.09 mg/dL
- GLC ([…], time 14 day): 215.4 mg/dL
- IP ([…], time 14 day): 7.2 mg/dL
- K ([…], time 14 day): 3.7 meq/L
- LDH ([…], time 14 day): 202.4 IU/L
- Na ([…], time 14 day): 140.8 meq/L
- PL ([…], time 14 day): 126.8 mg/dL
- RALB ([…], time 14 day): 3.6 g/dL
- TBIL ([…], time 14 day): 0.1 mg/dL
- TC ([…], time 14 day): 49.6 mg/dL
- TG ([…], time 14 day): 134 mg/dL
- TP ([…], time 14 day): 5.9 g/dL
- gamma-GTP ([…], time 14 day): 0.8 IU/L
- A/G ([…], time 28 day): 1.6
- ALP ([…], time 28 day): 588.2 IU/L
- ALT ([…], time 28 day): 34.4 IU/L
- AST ([…], time 28 day): 61.6 IU/L
- BUN ([…], time 28 day): 18.6 mg/dL
- CRE ([…], time 28 day): 0.5 mg/dL
- Ca ([…], time 28 day): 10.4 mg/dL
- Cl ([…], time 28 day): 103.4 meq/L
- DBIL ([…], time 28 day): 0.1 mg/dL
- GLC ([…], time 28 day): 221.8 mg/dL
- IP ([…], time 28 day): 6.7 mg/dL
- K ([…], time 28 day): 3.5 meq/L
- LDH ([…], time 28 day): 209 IU/L
- Na ([…], time 28 day): 142.4 meq/L
- PL ([…], time 28 day): 124.2 mg/dL
- RALB ([…], time 28 day): 3.8 g/dL
- TBIL ([…], time 28 day): 0.2 mg/dL
- TC ([…], time 28 day): 48.6 mg/dL
- TG ([…], time 28 day): 144.8 mg/dL
- TP ([…], time 28 day): 6.2 g/dL
- gamma-GTP ([…], time 28 day): 1 IU/L
